From patent publication US20090156501A1, “IDENTIFICATION OF LIGANDS BY SELECTIVE AMPLIFICATION OF CELLS TRANSFECTED WITH RECEPTORS” (ACADIA PHARMACEUTICALS, INC., priority 1999, published 2009)
Read-outs that look alike come from different tables or passages of the source.

What was measured:
Assay type in all cases: cell-based
[1] = molecular target: T1, FP prostanoid receptor (Homo sapiens, UniProt P43088); test: Single Receptor Format amplification assay, prostanoid FP; settings: 7-9 doses in duplicate; read-out: Ligand EC50 nM, FP
T1 construct: expressed in transfected cells; host or cells: NIH 3T3
T1 sequence (P43088 whole entry): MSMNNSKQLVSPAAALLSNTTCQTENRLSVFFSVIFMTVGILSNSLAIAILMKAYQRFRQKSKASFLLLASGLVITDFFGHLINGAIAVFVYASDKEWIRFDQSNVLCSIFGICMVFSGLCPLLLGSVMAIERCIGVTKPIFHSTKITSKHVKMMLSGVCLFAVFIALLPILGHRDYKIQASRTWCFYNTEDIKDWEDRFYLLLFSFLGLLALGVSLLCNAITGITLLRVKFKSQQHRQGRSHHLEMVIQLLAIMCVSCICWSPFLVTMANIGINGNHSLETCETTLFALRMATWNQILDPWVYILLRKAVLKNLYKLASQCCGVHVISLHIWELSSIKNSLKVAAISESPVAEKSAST
Text: (§1) Receptors belonging to several functional categories have successfully been assayed using the general protocol for the Single Receptor Format described above. […] A diversity of signal transduction classes are also illustrated: G-protein coupled receptors, tyrosine kinase linked receptors, G-proteins and oncogenes. In a few of these cases, focus assays have been used to assay ligand interaction with the illustrated receptors.

[2] = molecular target: T2, EP3 prostanoid receptor (Homo sapiens, UniProt P43115); test: Single Receptor Format amplification assay, prostanoid EP3; settings: 7-9 doses in duplicate; read-out: Ligand EC50 nM, EP3
T2 construct: expressed in transfected cells; host or cells: NIH 3T3
T2 sequence (P43115 1-390): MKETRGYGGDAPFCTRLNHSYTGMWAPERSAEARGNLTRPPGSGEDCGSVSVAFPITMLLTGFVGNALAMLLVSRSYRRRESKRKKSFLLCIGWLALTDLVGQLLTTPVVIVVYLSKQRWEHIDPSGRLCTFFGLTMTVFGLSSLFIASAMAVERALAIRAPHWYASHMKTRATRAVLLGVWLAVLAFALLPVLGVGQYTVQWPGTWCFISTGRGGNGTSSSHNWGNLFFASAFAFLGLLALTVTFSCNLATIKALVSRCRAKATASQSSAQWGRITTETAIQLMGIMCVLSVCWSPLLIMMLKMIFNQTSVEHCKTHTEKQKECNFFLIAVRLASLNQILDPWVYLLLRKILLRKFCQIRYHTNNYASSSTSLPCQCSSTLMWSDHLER
Text: as §1

[3] = molecular target: T3, m4 muscarinic receptor (Homo sapiens, UniProt P08173); test: Single Receptor Format amplification assay, β-galactosidase marker, NIH 3T3 cells transfected with m4 and chimeric G-protein; settings: for EC50: cotransfected with Gqi5, mean ±SE of 2-4 experiments, read-out: Muscarinic Agonists EC50 [μM], m4
T3 construct: expressed in transfected cells; host or cells: NIH 3T3
T3 sequence (P08173 1-479): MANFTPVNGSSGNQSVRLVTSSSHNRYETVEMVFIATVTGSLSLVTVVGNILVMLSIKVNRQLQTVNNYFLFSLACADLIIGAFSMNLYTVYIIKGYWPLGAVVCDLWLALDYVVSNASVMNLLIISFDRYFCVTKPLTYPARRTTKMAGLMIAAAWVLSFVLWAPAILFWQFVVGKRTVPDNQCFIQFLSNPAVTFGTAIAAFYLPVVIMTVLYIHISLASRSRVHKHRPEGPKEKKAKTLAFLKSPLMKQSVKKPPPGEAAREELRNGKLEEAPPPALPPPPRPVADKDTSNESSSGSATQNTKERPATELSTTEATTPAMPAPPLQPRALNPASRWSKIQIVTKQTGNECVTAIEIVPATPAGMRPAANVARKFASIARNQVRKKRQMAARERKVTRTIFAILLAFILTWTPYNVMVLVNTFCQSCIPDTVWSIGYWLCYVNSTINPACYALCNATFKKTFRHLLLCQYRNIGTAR

[4] = molecular target: T4, m5 muscarinic receptor (Homo sapiens, UniProt P08912); test: Single Receptor Format amplification assay, β-galactosidase marker, NIH 3T3 cells transfected with m5; settings: for Muscarinic Agonists (% Max), m5: maximum response as % of carbachol response (carbachol 5 μM)
T4 construct: expressed in transfected cells; host or cells: NIH 3T3
T4 sequence (P08912 1-532): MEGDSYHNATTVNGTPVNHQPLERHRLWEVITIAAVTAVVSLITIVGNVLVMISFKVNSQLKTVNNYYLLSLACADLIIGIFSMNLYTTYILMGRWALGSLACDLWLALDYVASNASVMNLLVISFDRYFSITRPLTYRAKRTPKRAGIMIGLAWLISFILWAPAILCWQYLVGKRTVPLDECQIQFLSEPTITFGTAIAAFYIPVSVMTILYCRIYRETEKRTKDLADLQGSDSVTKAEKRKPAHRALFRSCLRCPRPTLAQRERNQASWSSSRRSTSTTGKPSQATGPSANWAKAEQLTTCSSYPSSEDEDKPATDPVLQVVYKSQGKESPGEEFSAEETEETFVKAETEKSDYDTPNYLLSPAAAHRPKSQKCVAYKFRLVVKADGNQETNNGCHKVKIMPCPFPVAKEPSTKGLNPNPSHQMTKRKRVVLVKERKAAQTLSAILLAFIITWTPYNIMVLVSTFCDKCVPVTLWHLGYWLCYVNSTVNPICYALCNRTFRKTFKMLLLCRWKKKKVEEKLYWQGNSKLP

[5] = molecular target: T5, m1 muscarinic receptor (Homo sapiens, UniProt P11229); test: Single Receptor Format amplification assay, β-galactosidase marker, NIH 3T3 cells transfected with m1
T5 construct: expressed in transfected cells; host or cells: NIH 3T3
T5 sequence (P11229 1-460): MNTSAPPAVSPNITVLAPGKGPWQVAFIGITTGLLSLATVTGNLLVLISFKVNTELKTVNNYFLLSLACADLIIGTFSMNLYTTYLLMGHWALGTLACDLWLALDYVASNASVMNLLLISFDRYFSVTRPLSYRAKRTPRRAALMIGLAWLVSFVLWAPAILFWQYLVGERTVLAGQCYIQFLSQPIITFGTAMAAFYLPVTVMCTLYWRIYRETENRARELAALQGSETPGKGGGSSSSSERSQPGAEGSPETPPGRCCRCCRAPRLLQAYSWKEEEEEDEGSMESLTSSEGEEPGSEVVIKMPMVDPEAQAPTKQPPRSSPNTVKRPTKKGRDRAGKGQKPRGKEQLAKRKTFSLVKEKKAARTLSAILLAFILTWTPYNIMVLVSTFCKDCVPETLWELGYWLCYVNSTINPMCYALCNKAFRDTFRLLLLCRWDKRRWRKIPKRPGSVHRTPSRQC

[6] = molecular target: T6, m3 muscarinic receptor (Homo sapiens, UniProt P20309); test: Single Receptor Format amplification assay, β-galactosidase marker, NIH 3T3 cells transfected with m3; settings: for EC50: β-gal amplification, mean ±SE of 2-4 experiments, read-out: Muscarinic Agonists EC50 [μM], m3
T6 construct: expressed in transfected cells; host or cells: NIH 3T3
T6 sequence (P20309 whole entry): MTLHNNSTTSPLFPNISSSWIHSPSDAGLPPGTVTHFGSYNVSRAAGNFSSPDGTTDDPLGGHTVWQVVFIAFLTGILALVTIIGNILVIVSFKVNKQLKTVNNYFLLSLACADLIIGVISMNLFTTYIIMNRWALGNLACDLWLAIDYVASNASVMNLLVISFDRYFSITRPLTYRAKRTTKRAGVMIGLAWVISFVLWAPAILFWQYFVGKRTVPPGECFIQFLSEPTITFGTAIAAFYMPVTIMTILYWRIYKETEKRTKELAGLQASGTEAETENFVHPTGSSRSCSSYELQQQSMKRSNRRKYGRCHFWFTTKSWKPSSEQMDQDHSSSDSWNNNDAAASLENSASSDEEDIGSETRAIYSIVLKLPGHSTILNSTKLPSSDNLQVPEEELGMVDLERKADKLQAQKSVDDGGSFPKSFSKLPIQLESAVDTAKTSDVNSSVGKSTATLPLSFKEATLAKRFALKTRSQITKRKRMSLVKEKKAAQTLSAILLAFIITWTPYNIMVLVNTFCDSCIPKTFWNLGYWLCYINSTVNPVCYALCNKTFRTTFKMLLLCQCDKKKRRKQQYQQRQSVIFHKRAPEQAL

[7] = molecular target: T7, m2 muscarinic receptor (Homo sapiens, UniProt P08172); test: Single Receptor Format amplification assay, β-galactosidase marker, NIH 3T3 cells transfected with m2 and Gq-i5
T7 construct: expressed in transfected cells; host or cells: NIH 3T3
T7 sequence (P08172 1-466): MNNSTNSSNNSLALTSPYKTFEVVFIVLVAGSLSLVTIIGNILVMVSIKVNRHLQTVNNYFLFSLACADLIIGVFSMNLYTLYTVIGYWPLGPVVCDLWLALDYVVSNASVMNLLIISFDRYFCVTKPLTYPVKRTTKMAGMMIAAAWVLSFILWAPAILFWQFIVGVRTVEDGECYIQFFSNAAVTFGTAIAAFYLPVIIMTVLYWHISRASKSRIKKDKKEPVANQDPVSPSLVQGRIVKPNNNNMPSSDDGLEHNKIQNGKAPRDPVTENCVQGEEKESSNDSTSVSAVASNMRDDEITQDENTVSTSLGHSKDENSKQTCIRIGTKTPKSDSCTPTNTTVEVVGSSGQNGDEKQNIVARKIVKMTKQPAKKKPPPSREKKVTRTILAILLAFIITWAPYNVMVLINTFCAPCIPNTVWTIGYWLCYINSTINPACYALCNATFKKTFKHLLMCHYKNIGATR

[8] = molecular target: T8, trk C receptor (Homo sapiens, UniProt Q16288); test: Single Receptor Format amplification assay, trk C
T8 construct: expressed in transfected cells; host or cells: NIH 3T3
Text: Also illustrated is the dose-response relationships of the related neutrotrophic factor NT3.
as §1

[9] = molecular target: T9, trk A receptor (Homo sapiens, UniProt P04629); test: Single Receptor Format amplification assay, trk A; settings: 7-9 doses in duplicate
T9 construct: expressed in transfected cells; host or cells: NIH 3T3
T9 sequence (P04629 33-790 isoform P04629-2 limits assumed): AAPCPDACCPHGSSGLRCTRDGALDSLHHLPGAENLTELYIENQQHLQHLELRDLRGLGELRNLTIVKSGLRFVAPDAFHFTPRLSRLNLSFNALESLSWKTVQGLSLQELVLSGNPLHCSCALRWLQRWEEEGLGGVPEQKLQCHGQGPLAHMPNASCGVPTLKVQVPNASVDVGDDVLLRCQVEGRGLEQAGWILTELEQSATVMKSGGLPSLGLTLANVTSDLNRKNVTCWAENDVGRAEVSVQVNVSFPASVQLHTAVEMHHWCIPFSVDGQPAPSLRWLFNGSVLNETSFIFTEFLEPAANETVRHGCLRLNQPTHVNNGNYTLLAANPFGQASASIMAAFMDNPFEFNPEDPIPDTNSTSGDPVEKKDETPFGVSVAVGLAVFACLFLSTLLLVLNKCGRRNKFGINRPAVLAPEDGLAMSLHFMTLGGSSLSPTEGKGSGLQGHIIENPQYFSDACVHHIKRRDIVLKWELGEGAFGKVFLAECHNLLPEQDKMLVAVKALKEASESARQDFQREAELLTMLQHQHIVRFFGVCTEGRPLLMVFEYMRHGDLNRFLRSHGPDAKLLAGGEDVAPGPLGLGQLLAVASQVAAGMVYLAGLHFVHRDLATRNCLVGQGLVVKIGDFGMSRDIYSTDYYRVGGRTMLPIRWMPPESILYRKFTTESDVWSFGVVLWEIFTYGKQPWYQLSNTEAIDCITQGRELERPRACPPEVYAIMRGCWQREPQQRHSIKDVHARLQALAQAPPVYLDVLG

[10] = maximum response as % of carbachol response (carbachol 10 μM), Gqi5

## O=C(O)CCC/C=C\C[C@@H]1[C@@H](/C=C/[C@@H](O)COc2cccc(C(F)(F)F)c2)[C@H](O)C[C@@H]1O (racemic) [Fluprostenol]
[1]
  EC50: 2 ± 1 nM

## O=C(O)CCCCCC[C@H]1C(=O)CC[C@@H]1/C=C/[C@@H](O)COc1ccccc1 [MB28767]
[2]
  EC50: 270 ± 190 nM

## C[N+](C)(C)CC#CCOC(=O)Nc1cccc(Cl)c1.[Cl-] [McN A-434]
[3]
  EC50: 0.12 ± 0.02 µM
[3]; [10]
  Muscarinic Agonists (% Max), m4: (84 ± 3) %
[4]
  Muscarinic Agonists (% Max), m5: (57 ± 4) %
[4]; β-gal amplification, mean ±SE of 2-4 experiments, read-out: Muscarinic Agonists EC50 [μM], m5
  EC50: 1 ± 0.3 µM
[5]; maximum response as % of carbachol response (carbachol 200 μM)
  Muscarinic Agonists (% Max), m1: (43 ± 2) %
[5]; β-gal amplification, mean ±SE of 2-4 experiments, read-out: Muscarinic Agonists EC50 [μM], m1
  EC50: 1.1 ± 0.2 µM
[6]; maximum response as % of carbachol response (carbachol 100 μM)
  Muscarinic Agonists (% Max), m3: (38 ± 2) %
[6]
  EC50: 2.2 µM
[7]; cotransfected with Gqi5, mean ±SE of 2-4 experiments, read-out: Muscarinic Agonists EC50 [μM], m2
  EC50: 1.5 ± 0.6 µM
[7]; [10]
  Muscarinic Agonists (% Max), m2: (108 ± 7) %

## C[N+](C)(C)CCOC(N)=O [carbachol]
[3]; [10]
  Muscarinic Agonists (% Max), m4: (100) %
[4]
  Muscarinic Agonists (% Max), m5: (100) %
[7]; [10]
  Muscarinic Agonists (% Max), m2: (100) %

## C[C@@H]1O[C@H](C[N+](C)(C)C)C[C@H]1O [muscarine]
[3]
  Muscarinic Agonists (% Max), m4: (69 ± 2) %
  EC50: 0.32 ± 0.15 µM
[4]
  EC50: 0.39 ± 0.18 µM
  Muscarinic Agonists (% Max), m5: (86 ± 0) %
[5]
  Muscarinic Agonists (% Max), m1: (84 ± 4) %
[6]
  Muscarinic Agonists (% Max), m3: (84 ± 6) %
  EC50: 0.56 ± 0.25 µM
[7]
  Muscarinic Agonists (% Max), m2: (76 ± 1) %

## O=C1CCCN1CC#CCN1CCCC1 [oxotremorine]
[3]
  Muscarinic Agonists (% Max), m4: (102 ± 3) %
[4]
  Muscarinic Agonists (% Max), m5: (74 ± 2) %
[5]
  Muscarinic Agonists (% Max), m1: (75 ± 10) %
[6]
  Muscarinic Agonists (% Max), m3: (66 ± 5) %
[7]
  Muscarinic Agonists (% Max), m2: (100 ± 5) %

## NGF: Nerve growth factor (NGF) is an agonist for the trk A receptor
[8]; data not shown
  amplification response in cells transfected with trk C: not able to induce amplification responses

## NT3: related neutrotrophic factor NT3
[9]
  Ligand EC50, trk A: >1 µg/mL
[8]; 7-9 doses in duplicate
  Ligand EC50, trk C: 0.0024 ± 0.0011 µg/mL
